Laboratory results taken from publication PMC8303674, “Discovery of a Novel Triazolopyridine Derivative as a Tankyrase Inhibitor” (International Journal of Molecular Sciences, 2021).

Experiments:
TNKS2 (tankyrase 2) = target: T1, TNKS2 (tankyrase 2) (Homo sapiens, UniProt Q9H2K2); assay: cell-free colorimetric TNKS2 activity assay (BPS Bioscience); type: biochemical
T1 sequence (Q9H2K2 1-1166): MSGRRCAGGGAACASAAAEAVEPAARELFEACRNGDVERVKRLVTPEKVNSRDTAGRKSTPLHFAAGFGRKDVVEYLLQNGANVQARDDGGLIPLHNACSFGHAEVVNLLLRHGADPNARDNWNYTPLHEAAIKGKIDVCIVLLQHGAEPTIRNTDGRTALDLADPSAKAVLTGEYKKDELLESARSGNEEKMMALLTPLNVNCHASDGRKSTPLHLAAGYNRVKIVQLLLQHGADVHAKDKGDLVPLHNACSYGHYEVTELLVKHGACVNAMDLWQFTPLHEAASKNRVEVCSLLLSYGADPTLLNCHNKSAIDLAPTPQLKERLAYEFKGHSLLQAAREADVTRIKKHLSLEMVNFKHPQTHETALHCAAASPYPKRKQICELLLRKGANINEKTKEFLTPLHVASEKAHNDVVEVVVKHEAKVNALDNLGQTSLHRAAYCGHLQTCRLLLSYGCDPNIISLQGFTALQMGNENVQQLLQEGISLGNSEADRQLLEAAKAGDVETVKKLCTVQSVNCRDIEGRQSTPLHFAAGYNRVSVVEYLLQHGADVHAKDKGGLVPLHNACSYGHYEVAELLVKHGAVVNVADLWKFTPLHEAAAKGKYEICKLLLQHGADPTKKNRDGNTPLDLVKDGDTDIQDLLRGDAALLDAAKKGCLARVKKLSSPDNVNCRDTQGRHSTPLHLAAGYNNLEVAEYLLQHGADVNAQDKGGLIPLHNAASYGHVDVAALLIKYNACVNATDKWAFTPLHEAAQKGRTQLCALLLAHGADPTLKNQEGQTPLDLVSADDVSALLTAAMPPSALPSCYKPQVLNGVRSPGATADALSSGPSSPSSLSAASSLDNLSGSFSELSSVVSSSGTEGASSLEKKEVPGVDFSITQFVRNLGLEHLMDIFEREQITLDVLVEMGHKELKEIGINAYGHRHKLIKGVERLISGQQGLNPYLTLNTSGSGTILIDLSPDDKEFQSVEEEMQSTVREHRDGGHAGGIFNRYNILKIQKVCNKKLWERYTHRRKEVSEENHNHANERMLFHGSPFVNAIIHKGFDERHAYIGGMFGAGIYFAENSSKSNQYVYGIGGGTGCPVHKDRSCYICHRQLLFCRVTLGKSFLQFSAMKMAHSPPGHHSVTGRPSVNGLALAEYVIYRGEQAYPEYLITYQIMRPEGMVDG
Excerpt: cell-free colorimetric TNKS2 activity assay (BPS Bioscience) on TNKS2 (tankyrase 2) | IC50 (μM) of TI-12403 against TNKS1 and TNKS2.

TNKS1 (tankyrase) = target: T2, TNKS1 (tankyrase) (Homo sapiens, UniProt O95271); assay: cell-free colorimetric TNKS1 activity assay (BPS Bioscience); type: biochemical
T2 construct: gene TNKS
T2 sequence (O95271 whole entry): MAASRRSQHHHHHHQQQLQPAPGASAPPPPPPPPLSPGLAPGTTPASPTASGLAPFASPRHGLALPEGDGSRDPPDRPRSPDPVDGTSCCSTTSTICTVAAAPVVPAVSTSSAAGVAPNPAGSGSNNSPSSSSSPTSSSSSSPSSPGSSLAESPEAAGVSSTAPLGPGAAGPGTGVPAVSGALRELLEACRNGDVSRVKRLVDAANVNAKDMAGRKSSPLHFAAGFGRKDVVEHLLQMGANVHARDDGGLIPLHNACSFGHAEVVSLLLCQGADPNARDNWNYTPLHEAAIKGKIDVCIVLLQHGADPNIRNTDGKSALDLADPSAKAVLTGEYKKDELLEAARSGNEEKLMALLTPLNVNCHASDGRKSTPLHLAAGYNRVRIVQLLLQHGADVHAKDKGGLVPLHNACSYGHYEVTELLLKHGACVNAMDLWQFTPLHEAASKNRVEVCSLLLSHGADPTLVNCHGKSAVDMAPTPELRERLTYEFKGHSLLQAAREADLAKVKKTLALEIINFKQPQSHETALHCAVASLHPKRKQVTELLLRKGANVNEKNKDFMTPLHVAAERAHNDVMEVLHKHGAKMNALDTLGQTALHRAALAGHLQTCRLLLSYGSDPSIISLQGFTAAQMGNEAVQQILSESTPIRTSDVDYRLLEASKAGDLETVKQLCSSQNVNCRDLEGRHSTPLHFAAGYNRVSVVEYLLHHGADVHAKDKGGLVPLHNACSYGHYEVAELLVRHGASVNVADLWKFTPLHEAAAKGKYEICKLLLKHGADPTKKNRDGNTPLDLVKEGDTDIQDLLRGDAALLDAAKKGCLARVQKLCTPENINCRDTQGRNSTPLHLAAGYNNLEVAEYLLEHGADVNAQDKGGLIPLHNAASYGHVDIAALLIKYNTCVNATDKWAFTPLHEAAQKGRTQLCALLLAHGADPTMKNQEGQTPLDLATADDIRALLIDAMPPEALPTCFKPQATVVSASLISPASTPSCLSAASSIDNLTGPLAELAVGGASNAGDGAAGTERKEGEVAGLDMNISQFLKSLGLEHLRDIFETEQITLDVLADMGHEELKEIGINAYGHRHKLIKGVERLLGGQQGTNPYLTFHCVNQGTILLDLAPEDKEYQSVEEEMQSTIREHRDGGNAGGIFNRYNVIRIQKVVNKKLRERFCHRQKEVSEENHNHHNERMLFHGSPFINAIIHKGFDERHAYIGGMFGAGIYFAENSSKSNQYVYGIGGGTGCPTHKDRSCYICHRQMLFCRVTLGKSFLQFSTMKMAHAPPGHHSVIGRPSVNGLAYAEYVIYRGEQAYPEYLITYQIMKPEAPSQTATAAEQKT
Excerpt: cell-free colorimetric TNKS1 activity assay (BPS Bioscience) on TNKS1 (tankyrase) | IC50 (μM) of TI-12403 against TNKS1 and TNKS2.

`N#Cc1ccccc1N1CCC(C(=O)Nc2nnc3ccccn23)CC1` [TI-12403, N-([1,2,4]triazolo[4,3-a]pyridin-3-yl)-1-(2-cyanophenyl)piperidine-4-carboxamide] was tested, and the IC50 (TNKS2 (tankyrase 2)) was 60 nM and the IC50 (TNKS1 (tankyrase)) was 29 nM.
